Data: PubChem BioAssay AID256 (DTP/NCI, 2004)
Toxic doses and inconclusive results are not listed. The calls were made as follows: active = survival T/C of 150% or more; inactive = T/C below 125% in these data.

Tested on: CD2F1 mice, L1210 leukemia ip, survival T/C
Test: NCI In Vivo Anticancer Drug Screen. Data for tumor model L1210 Leukemia (intraperitoneal) in CD2F1 (CDF1) mice
Details: higher = longer survival
Method in brief: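 Transplantable tumor in mice; compound-treated vs vehicle-treated groups. Read-out = treated/control ratio of the measured endpoint.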

[1] = endpoint: mean survival time, dose: 25.0 mg/kg/injection, schedule: Q04DX003 (ip), vehicle: saline
[2] = endpoint: mean survival time, dose: 100.0 mg/kg/injection, schedule: Q01DX001 (ip), vehicle: saline
[3] = endpoint: mean survival time, dose: 200.0 mg/kg/injection, schedule: Q01DX001 (ip), vehicle: saline
[4] = endpoint: mean survival time, dose: 100.0 mg/kg/injection, schedule: Q01DX009 (ip), vehicle: saline with Tween-80
[5] = endpoint: mean survival time, dose: 100.0 mg/kg/injection, schedule: Q04DX003 (ip), vehicle: saline with Tween-80
[6] = endpoint: mean survival time, dose: 200.0 mg/kg/injection, schedule: Q01DX009 (ip), vehicle: saline with Tween-80
[7] = endpoint: mean survival time, dose: 200.0 mg/kg/injection, schedule: Q04DX003 (ip), vehicle: saline with Tween-80
[8] = endpoint: mean survival time, dose: 400.0 mg/kg/injection, schedule: Q04DX003 (ip), vehicle: saline with Tween-80
[9] = endpoint: mean survival time, dose: 100.0 mg/kg/injection, schedule: Q04DX003 (ip), vehicle: saline
[10] = endpoint: mean survival time, dose: 200.0 mg/kg/injection, schedule: Q04DX003 (ip), vehicle: saline
[11] = endpoint: mean survival time, dose: 50.0 mg/kg/injection, schedule: Q04DX003 (ip), vehicle: saline
[12] = endpoint: mean survival time, dose: 100.0 mg/kg/injection, schedule: Q04DX002 (ip), vehicle: saline with Tween-80
[13] = endpoint: mean survival time, dose: 400.0 mg/kg/injection, schedule: Q04DX002 (ip), vehicle: saline with Tween-80
[14] = endpoint: mean survival time, dose: 200.0 mg/kg/injection, schedule: Q04DX002 (ip), vehicle: saline with Tween-80

Measured: T/C

O=[N+]([O-])c1ccc(S/C=C/c2ccccc2)cc1
inactive: endpoint: median survival time, dose: 25.0 mg/kg/injection, schedule: Q04DX002 (ip), vehicle: saline with Tween-80 100 % of control | endpoint: median survival time, dose: 50.0 mg/kg/injection, schedule: Q04DX002 (ip), vehicle: saline with Tween-80 110 % of control | endpoint: median survival time, dose: 100.0 mg/kg/injection, schedule: Q04DX002 (ip), vehicle: saline with Tween-80 100 % of control | endpoint: median survival time, dose: 200.0 mg/kg/injection, schedule: Q04DX002 (ip), vehicle: saline with Tween-80 100 % of control

COc1ccc(/C=C\[N+](=O)[O-])cc1OC
inactive: endpoint: mean survival time, dose: 100.0 mg/kg/injection, schedule: Q04DX003 (ip), vehicle: Klucel (hydroxypropylcellulose) (HPC) 101 % of control | endpoint: mean survival time, dose: 200.0 mg/kg/injection, schedule: Q04DX003 (ip), vehicle: Klucel (hydroxypropylcellulose) (HPC) 104 % of control | endpoint: mean survival time, dose: 400.0 mg/kg/injection, schedule: Q04DX003 (ip), vehicle: Klucel (hydroxypropylcellulose) (HPC) 101 % of control

CC(=O)OC(CC(=O)CC(O)(C(F)(F)F)C(F)(F)F)(C(F)(F)F)C(F)(F)F
inactive: endpoint: mean survival time, dose: 6.25 mg/kg/injection, schedule: Q04DX003 (ip), vehicle: saline 95 % of control | endpoint: mean survival time, dose: 12.5 mg/kg/injection, schedule: Q04DX003 (ip), vehicle: saline 98 % of control | [1] 96 % of control

O=C(/C=C\c1ccccc1)c1ccc(Cl)cc1
inactive: endpoint: mean survival time, dose: 100.0 mg/kg/injection, schedule: Q01DX001 (ip), vehicle: other 90 % of control | endpoint: mean survival time, dose: 200.0 mg/kg/injection, schedule: Q01DX001 (ip), vehicle: other 92 % of control | endpoint: mean survival time, dose: 400.0 mg/kg/injection, schedule: Q01DX001 (ip), vehicle: other 88 % of control

NC(=S)N/N=C/C(=O)c1ccc(Br)cc1
inactive: [2] 102 % of control | [3] 100 % of control

CCN(CC)CCN=Cc1c(O)c(O)c(C(C)C)c2cc(C)c(-c3c(C)cc4c(C(C)C)c(O)c(O)c(C=NCCN(CC)CC)c4c3O)c(O)c12
inactive: [2] 90 % of control | [3] 90 % of control | endpoint: mean survival time, dose: 400.0 mg/kg/injection, schedule: Q01DX001 (ip), vehicle: saline 93 % of control

COc1cc(CC2c3cc(OC)c(OC)cc3CCN2C)c(Oc2cc3c(cc2OC)-c2c(OC)c(OC)c(OC)c4c2C(C3)N(C)CC4)cc1OC (stereo not given)
inactive: endpoint: mean survival time, dose: 50.0 mg/kg/injection, schedule: Q01DX009 (ip), vehicle: saline with Tween-80 95 % of control | [4] 86 % of control

Cc1cn(C2CC(O)C(CO)O2)c(=O)nc1NCCc1c[nH]c2ccccc12 (stereo not given)
inactive: endpoint: median survival time, dose: 12.5 mg/kg/injection, schedule: Q01DX005 (ip), vehicle: distilled water + Tween-80 103 % of control | endpoint: median survival time, dose: 25.0 mg/kg/injection, schedule: Q01DX005 (ip), vehicle: distilled water + Tween-80 103 % of control | endpoint: median survival time, dose: 50.0 mg/kg/injection, schedule: Q01DX005 (ip), vehicle: distilled water + Tween-80 102 % of control | endpoint: median survival time, dose: 100.0 mg/kg/injection, schedule: Q01DX005 (ip), vehicle: distilled water + Tween-80 103 % of control | endpoint: median survival time, dose: 200.0 mg/kg/injection, schedule: Q01DX005 (ip), vehicle: distilled water + Tween-80 102 % of control

COC(=O)c1ccc(N(C)C/C(CN2C(=O)c3ccccc3C2=O)=N\O)cc1
inactive: endpoint: mean survival time, dose: 75.0 mg/kg/injection, schedule: Q01DX001 (ip), vehicle: other 92 % of control | endpoint: mean survival time, dose: 150.0 mg/kg/injection, schedule: Q01DX001 (ip), vehicle: other 106 % of control

CN(C)C
inactive: [4] 103 % of control | [5] 102 % of control | [6] 101 % of control | [7] 105 % of control | endpoint: mean survival time, dose: 400.0 mg/kg/injection, schedule: Q01DX009 (ip), vehicle: saline with Tween-80 105 % of control | [8] 104 % of control

NC(=O)/C=C1\NC(=O)CS1
inactive: endpoint: mean survival time, dose: 100.0 mg/kg/injection, schedule: Q01DX009 (ip), vehicle: saline sonified 97 % of control | [5] 100 % of control | endpoint: mean survival time, dose: 200.0 mg/kg/injection, schedule: Q01DX009 (ip), vehicle: saline sonified 103 % of control | [7] 91 % of control | endpoint: mean survival time, dose: 400.0 mg/kg/injection, schedule: Q01DX009 (ip), vehicle: saline sonified 88 % of control | [8] 102 % of control

OCC1OC(n2cnc3c(N4CCCC4)ncnc32)C(O)C1O (stereo not given)
inactive: endpoint: mean survival time, dose: 12.5 mg/kg/injection, schedule: Q01DX005 (ip), vehicle: other 101 % of control | endpoint: mean survival time, dose: 25.0 mg/kg/injection, schedule: Q01DX005 (ip), vehicle: other 101 % of control | endpoint: mean survival time, dose: 50.0 mg/kg/injection, schedule: Q01DX005 (ip), vehicle: other 108 % of control | endpoint: mean survival time, dose: 100.0 mg/kg/injection, schedule: Q01DX005 (ip), vehicle: other 106 % of control | endpoint: mean survival time, dose: 200.0 mg/kg/injection, schedule: Q01DX005 (ip), vehicle: other 96 % of control

Nc1cc(C(F)(F)F)ccc1[N+](=O)[O-]
inactive: [5] 100 % of control | [7] 100 % of control | [8] 104 % of control

O=C1c2ccccc2C(=O)N1c1ccc(Cl)cc1
inactive: endpoint: mean survival time, dose: 100.0 mg/kg/injection, schedule: Q01DX001 (ip), vehicle: Klucel (hydroxypropylcellulose) (HPC) 92 % of control | endpoint: mean survival time, dose: 200.0 mg/kg/injection, schedule: Q01DX001 (ip), vehicle: Klucel (hydroxypropylcellulose) (HPC) 96 % of control | endpoint: mean survival time, dose: 400.0 mg/kg/injection, schedule: Q01DX001 (ip), vehicle: Klucel (hydroxypropylcellulose) (HPC) 107 % of control

N#CN1CCOCC1
inactive: endpoint: mean survival time, dose: 100.0 mg/kg/injection, schedule: Q01DX009 (ip), vehicle: saline 101 % of control | [9] 91 % of control | endpoint: mean survival time, dose: 200.0 mg/kg/injection, schedule: Q01DX009 (ip), vehicle: saline 110 % of control | [10] 96 % of control

Cc1ccc(S(=O)(=O)OCC2CC=CCC2COS(=O)(=O)c2ccc(C)cc2)cc1 (stereo not given)
inactive: [11] 102 % of control | [9] 96 % of control | [10] 91 % of control

CCCCS/C=C\C(=O)OCC
inactive: [12] 102 % of control | [13] 102 % of control

Cc1nnc(-c2ccccc2)c(-c2ccccc2)n1
inactive: endpoint: mean survival time, dose: 50.0 mg/kg/injection, schedule: Q04DX002 (ip), vehicle: saline with Tween-80 103 % of control | endpoint: mean survival time, dose: 100.0 mg/kg/injection, schedule: Q01DX001 (ip), vehicle: saline with Tween-80 93 % of control | [12] 98 % of control | endpoint: mean survival time, dose: 200.0 mg/kg/injection, schedule: Q01DX001 (ip), vehicle: saline with Tween-80 95 % of control | [14] 95 % of control | endpoint: mean survival time, dose: 400.0 mg/kg/injection, schedule: Q01DX001 (ip), vehicle: saline with Tween-80 91 % of control

O=C(NCCCCC(NC(=O)OCc1ccccc1)C(=O)ON1C(=O)CCC1=O)OCc1ccccc1 (stereo not given)
inactive: endpoint: mean survival time, dose: 12.5 mg/kg/injection, schedule: Q01DX009 (ip), vehicle: other 96 % of control | endpoint: mean survival time, dose: 25.0 mg/kg/injection, schedule: Q01DX009 (ip), vehicle: other 86 % of control | endpoint: mean survival time, dose: 50.0 mg/kg/injection, schedule: Q01DX009 (ip), vehicle: other 90 % of control | endpoint: mean survival time, dose: 100.0 mg/kg/injection, schedule: Q01DX009 (ip), vehicle: other 94 % of control | endpoint: mean survival time, dose: 200.0 mg/kg/injection, schedule: Q01DX009 (ip), vehicle: other 97 % of control

CC(NC(=O)CCl)C(=O)O (stereo not given)
inactive: [9] 94 % of control | [10] 100 % of control

Cc1ccc(N=C(N)NC#N)cc1C
inactive: [4] 95 % of control | [6] 97 % of control

CN(C)/C=N/N1CCCCCC1
inactive: [1] 103 % of control | [11] 97 % of control | [9] 96 % of control

Cc1cc(SC(=O)N(C)C)c(S(=O)(=O)F)cc1Cl
inactive: [12] 87 % of control | [14] 87 % of control | [13] 93 % of control
